# Experimental data from patent US9603841B2, “Vector delivery-based microbicides” (Rush University Medical Center, priority 2005, dated 2017).
# Where two headings read alike, the source gives them in different places.
# Legend:
# [1] = 0.5 mM in 0.1 M PBS, pH 7.4, 37° C.; cited from earlier work
# [2] = system: spermatozoa; conditions: cited from earlier work
# [3] = molecular target: human spermatozoa; experiment: Inhibition of fractionated NO23-SAMMA-induced acrosomal loss by protein kinase G inhibitor; format: cell-based; conditions: Ca2+-independent (absence of added extracellular Ca2+)
# From the text: NO23-SAMMA, whether fractionated or not, appears, at least in part, to act through release of nitric oxide. Fractionated NO23-SAMMA-induced acrosomal loss in the absence of added extracellular Ca^2+ is inhibited by the selective protein kinase G inhibitor KT5823 (see FIG. 6). […] Acrosomal loss in human spermatozoa in response to NO donors is inhibited by protein kinase G inhibitors ([…] et al., “Signaling pathway of nitric oxide-induced acrosome reaction in human spermatozoa”, Biol. Reprod., 64: 1708-12 (2001)). […] Inhibition of acrosomal loss by the selective protein kinase G inhibitor supports this contention.
# [4] = system: spermatozoa; conditions: cited from earlier work; remark: listed apart in the source
# [5] = system: HIV-1 Bee; experiment: HIV-1 infected primary lymphocytes, agent added after inoculation (p24, day 7); format: cell-based; conditions: agent added after 2 h inoculation and washing, p24 on day 7
# Method: HIV is sensitive to inhibition by the NO donor used to synthesize NO-SAMMA (nitrooxypropanol), although substantially less than to NO-SAMMA. […] Viral replication was measured on day 7 of incubation (p24 levels).
# [6] = system: spermatozoa; experiment: Sperm immobilization (modified Sander and Cramer), motile spermatozoa; format: cell-based; conditions: 10 mM
# From the text: Data are presented as the percentage of motile spermatozoa at each concentration of test agent. When possible, test outcomes were also reported as the concentration of agent in the semen sample that reduces motility by 50%.
# [7] = system: human spermatozoa; experiment: Acrosomal loss (AL) in human spermatozoa; format: cell-based; conditions: for EC50: Homo sapiens, Spermatozoa
# Method: Measurement of AL was carried out as described previously. […] All reactions were carried out in either the presence or absence of added extracellular Ca^2+ (1.28 mM). […] Data are expressed as the average % maximal response, based on the AL induced by a maximally stimulating concentration of the calcium ionophore A23187.
# Unless otherwise noted, acrosomal loss data were obtained from assays that included Ca^2+ in the extracellular medium. In contrast, acrosomal loss induced by NO donors occurs independent of Ca^2+. […] Although not wishing to be limited by theory, it appears that acrosomal loss in the presence of added extracellular Ca^2+ may be due to either or both moieties, whereas acrosomal loss in the absence of Ca^2+ is due entirely to the NO donor moiety.
# [8] = system: hyaluronidase; experiment: Hyaluronidase activity inhibition; format: biochemical; conditions: 50 μM
# Method: Hyaluronidase activity was measured as described in Example 8 of U.S. Pat. No. 5,932,619. […] In contrast, the NO donor moiety of NO23-SAMMA, nitrooxypropanol, is nearly without effect.
# [9] = system: C. trachomatis (serotype E/UW-5/CX); experiment: Infection of HeLa cells by C. trachomatis; format: cell-based, Chlamydia trachomatis; conditions: read-out: IC50 against C. trachomatis
# Method: Effect of NO-SAMMA against C. trachomatis. […] This was followed by inoculation of the monolayer with chlamydial elementary bodies. One hour after inoculation, free microbes and/or microbicide were removed by washing, and the HeLa cell cultures were incubated for an additional 48 hours at 37° C. Chlamydia-induced inclusions were measured by immunofluorescence, after reacting cultures with Kallsted chlamydia culture confirmation fluorescein-conjugated monoclonal antibody.
# [10] = system: vaginal/cervical epithelial and other cells; conditions: cited from earlier work
compound,measurement,setting,value
"CC/C(=C\C(=N/O)C(N)=O)C(C)[N+](=O)[O-] (racemic) [NOR-3, (±)-E-4-ethyl-2-[(E)-hydroxyimino]-5 nitro-3-hexenamide]",half-life,[1],about 30 minutes
NCCOB(c1ccccc1)c1ccccc1 [2-APB],effect on SAMMA-induced acrosomal loss,[2],not inhibited
CCCCCCOC(=O)[C@]1(O)C[C@@H]2O[C@@]1(C)n1c3ccccc3c3c4c(c5c6ccccc6n2c5c31)C(=O)NC4 [KT5720],effect on SAMMA-induced acrosomal loss,[2],not inhibited
COC(=O)[C@@]1(OC)C[C@H]2O[C@]1(C)n1c3ccccc3c3c4c(c5c6ccccc6n2c5c31)C(=O)N(C)C4 [KT5823],IC50,[3],700 nM
same,effect on NO donor-induced acrosomal loss,[4]; 2 μM,not inhibited
same,inhibition of SAMMA-induced acrosomal loss,[2]; 2 μM,> 95%
"O=[N+]([O-])OCCCO [Nitrooxypropanol, 3-nitrooxy-1-propanol]",IC50,"[5]; Human immunodeficiency virus 1, Lymphocyte",2540 µg/mL
same,concentration giving 80% reduction (printed in the 3-Log reduction column),[5],1017 (80% reduction) μg/mL
same,% Motile Spermatozoa av ± SEM (n = 4),[6],66 ± 0.5 at 10 mM %
same,EC50,"[7]; Ca2+-independent, read-out: ED50 acrosomal loss",120 nM
same,EC50,[7]; read-out: ED50 as a stimulus of acrosomal loss,120 nM
same,Inhibition ± SEM (N = 4),[8],8 ± 1.8% at 50 μM
O=c1onc2cnc3ccccc3n12 [ODQ],inhibition of SAMMA-induced acrosomal loss,[2]; 0.1 μM,~50%
O=c1c2nc(Br)n([C@@H]3O[C@@H]4CO[P@@](O)(=S)O[C@H]4[C@H]3O)c2nc2[nH]c(-c3ccccc3)cn12 [Rp-8-Br-PET-cGMPS],effect on NO donor-induced acrosomal loss,[4]; 0.35 μM,not inhibited
nitroprusside,% maximal AL,[7]; 22 μM,74%
same,IC50,[9],23000 nM
nonoxynol-9,lowest concentration that can injure cells,[10],about 0.0005%
